According to US8822440B2, “Inhibiting cyclin D polypeptides” (Mayo Foundation for Medical Education and Research, priority 2006, dated 2014):
Values joined by “and” are separate entries in the source; they are usually repeats but may differ in a detail not shown here. Equal entries are not always repeated. “Also recorded” adds a separate entry of the source.

Legend:
CCND2 promoter = test: CCND2 promoter-luciferase transactivation assay in NIH3T3 cells with or without c-maf; format: cell-based, mouse
Experimental: Using this assay, Lopac (n=1280), Prestwick (n=1120), and Spectrum (n=2000) libraries of drugs and natural compounds were screened. In a parallel MTS assay, the effect of each compound on 3T3 viability was determined, allowing exclusion of compounds that caused secondary suppression of CCND2 due to non-specific cytotoxicity. […] These included monensin, patulin, β-lapachone, camptothecin, dihydrogambogic acid, gentian violet, thapsigargin, brefeldin A, pristimerin, and kinetin riboside.
Full-length c-maf cDNA was subcloned into an IRES-GFP MIEV retroviral vector and introduced into NIH3T3 cells by infection. Stable clones expressing GFP and c-maf were selected by flow cytometry and immunoblotting, respectively. The promoter of human cyclin D2 (−894 to −4; Brooks et al., J. Biol. Chem., 271, 9090-9 (1996)), containing c-maf responsive element sequence (MARE), was cloned from DNA from HeLa cells and inserted into the pGLbasic firefly luciferase vector (Promega, Madison, Wis.) immediately upstream of the luciferase gene. This construct was co-transfected with pcDNA3 (containing a neomycin resistance gene) into both NIH3T3 wild type cells and NIH3T3 cells stably over-expressing c-maf-IRES-GFP. Cells stably expressing c-maf, GFP, and luciferase were selected.
NIH3T3 cells stably expressing c-maf and the CCND2 promoter driving luciferase (13,000 cells per well) were plated in 96-well plates by a Biomek FX liquid handler (Beckman, Fullerton, Calif.). After the cells had adhered, they were treated with aliquots of molecules from LOPAC (Sigma, St. Louis, Mo.), Prestwick (Prestwick Chemical Inc, Illkirch, France) or Spectrum (Microsource Discovery Systems, Gaylordsville, Conn.) libraries of off-patent drugs and chemicals at a final concentration of ˜5 μM and <0.1% DMSO. Cells were incubated with compounds at 37° C. for 16 hours.
Luciferase assay. Luciferase activity was assessed according to the manufacturer's instructions (Promega, Madison, Wis.). Briefly, the cell culture medium was removed using an EMBLA plate washer (Molecular Devices, X) and Glo Lysis buffer (Promega) was added by robot. After a 10-minute incubation, an equal volume of Bright-Glo Luciferase substrate (Promega) was added, and luminescence signal was detected with a 96-well Luminoskan luminescence plate reader (Thermo Labsystem, Waltham, Mass.) using a 5 second integration.
Studies of kinetin riboside using 3T3-D2-luc cells. To examine CCND2 suppression induced by kinetin riboside, the reporter cells were exposed to kinetin riboside in combination with other drugs (all purchased from Sigma, St. Loius, Mo.) that influence CCND2 transcription or inhibit nucleoside transport or phosphorylation. NIH3T3 cells expressing the CCND2 promoter driving luciferase were incubated with kinetin riboside or vehicle control +/− forskolin, 4-(3-butoxy-4-methoxybenzyl)imidazolidin-2-one (BMBI), cantharadin, S-(4-Nitrobenzyl)-6-thioinosine (NBTI), or A-134974, as specified at 5 μM concentration for 16 hours at 37° C. […] Forskolin is a cell-permeable diterpenoid that activates adenylate cyclase resulting in increased cAMP concentration. BMBI (Sigma B8279) is an inhibitor of cAMP phosphodiesterase that also causes accumulation of cAMP. Cantharadin (C7632) is an inhibitor of protein phosphatase 2A and, from the library screen, mediates induction of CCND2. NBTI (Sigma N2255) is a potent adenosine uptake inhibitor, and A-134974 (Sigma A2846) is a selective inhibitor of adenosine kinase.
In an optimized automated assay, NIH3T3 cells over-expressing c-maf and the human cyclin D2 promoter driving luc were plated in 96-well plates by robot and following adhesion were treated for 16 hours with compounds at a final concentration of ˜5 μM and <0.1% DMSO. As a control, cells were treated with buffer alone. […] Thus, each compound from the library was tested in at least two assays—luciferase for CCND2 activity and MTS for viability. The coefficient of variance (CV) of the assay was <10%.

[1] = tested on: human myeloma cell lines (HMCL); test: HMCL viability / cytotoxicity (MTT, MTS); format: cell-based; settings: for IC50: Homo sapiens
Experimental: Subsequent validation studies using selected compounds in human myeloma cell lines (HMCL) confirmed successful suppression of both cyclin D2 and D1 polypeptides. Each of these compounds was then shown to be cytotoxic to a genetically diverse and standardized panel of 14 HMCL in MTT assays: monensin (10-760 nM), camptothecin (5-700 nM), dihydrogambogic acid (250-800 nM), pristimerin (150-500 nM), and kinetin riboside (2.5-20 μM). Cell cycle analysis confirmed induction of G0/G1 phase arrest for most compounds, consistent with cyclin D inhibition.
Viability assay. The effects of screened compounds on cell viability was assessed by 3-(4,5-dimethyl[…])-5-(3-carboxymethoxyphenyl)-2-(4-sulfophenyl)-2-H-tetrazolium (MTS) assay according to the manufacture's instructions (Progmega, Madison, Wis.). MTS reagent (20 μL/well in 96 well plates) was added to cells, and these were then incubated at 37° C. for 4 hours. Absorbance at 490 nm was determined using a 96-well plate reader.

My5 tumors = test: My5 myeloma xenograft in nude mice; format: in vivo; settings: for effect on My5 tumors: 85 mg/kg/dose
Experimental: FIG. 14. Kinetin riboside induces tumor growth arrest in My5 and 8226 myeloma tumor xenografts. (A) Matched pairs of nude mice bearing My5 tumors were treated intra-peritoneally (i.p.) with vehicle control (□) or with kinetin riboside (▪) at escalating dose-density from 100 mg/kg once daily to 85mg/kg 5×/daily, administered 5 days per week, commencing after mean tumor volume reached 135mm^3. Mean tumor volumes±SEM are shown from the time of xenografting (n=4/group). (B) Nude mice bearing 8226 tumors were treated with vehicle (□) or with kinetin riboside (▪) (n=4/group), commencing at 85 mg/kg QID (i.p. and s.c.) when the mean tumor volume exceeded 135 mm^3.
Female nude X-linked immune-deficient (BNX) mice purchased from NCI-Frederick were used for in vivo studies. Animals had access to food and water ad libitum and were handled in accordance with animal care and use guidelines. Eight-week-old mice were inoculated with My5 or 8226 (2×10^7) MM cells subcutaneously (s.c.) in the right flank. Kinetin riboside (pre-dissolved in DMSO at 500 mg/mL and stored at −20° C.) was formulated daily by dropwise dissolution to 3.7 mg/mL in pre-warmed (37° C.) 0.9% saline, 1% β2-hydroxypropylcyclodextrin (Sigma) solution and was administered 1×-5× daily at 85 mg/kg/dose. The first dose daily was given intraperitoneally and remaining doses were given s.c. with increasing dosing intervals (30, 60, 120, 180 minutes). Tumor volumes were measured using vernier calipers and calculated with the formula L×W×H×2/3. P-values were calculated by paired t-test (JMP 6.0, SAS; Cary, N.C.).

Aqueous solubility = format: physicochemical

OC[C@H]1O[C@@H](n2cnc3c(NCc4ccco4)ncnc32)[C@H](O)[C@@H]1O [kinetin riboside, N6-Furfuryladenosine]
time course of suppression of CCND2-driven luciferase (CCND2 promoter; NIH3T3): rapid suppression of CCND2 transactivation
suppression of CCND2 promoter in absence or presence of c-maf (CCND2 promoter; NIH3T3 CCND2-luc with or without c-maf): c-maf independent specific suppression of the CCND2 promoter
effect on BMBI-induced CCND2 transactivation (CCND2 promoter; co-incubation, 5 μM, 16 hours): effectively blocked
effect on Forskolin-induced CCND2 transactivation (CCND2 promoter; co-incubation, 5 μM, 16 hours): blocked
effect on cantharadin-induced CCND2 transactivation (CCND2 promoter; co-incubation, 5 μM, 16 hours): abolished
identified as putative inhibitor of CCND2 transactivation (screen hit) (CCND2 promoter; ~5 μM, 16 hours, hit = 50% or more reduction in luciferase relative to cell viability): putative CCND2 inhibitors; also recorded: putative suppressors of CCND2
IC50 ([1]; 48 h, 8 out of 12 HMCL): < 1.7 µg/mL and < 5 µM
IC50 ([1]; 48 h, 11/12 HMCL): < 5 µg/mL and < 15 µM
IC50 ([1]; JJN-3, JJN3): ~5 µM
IC50 ([1]; U-266, U266): > 20 µM
cytotoxic concentration across panel of 14 HMCL ([1]; human): 2.5 to 20 µM
effect on My5 tumors (My5 tumors; 4× daily dosing): tumor stasis
effect on My5 tumors (My5 tumors; 5x daily dosing): regression of tumors
effect on My5 tumor growth (My5 tumors; once daily, up to 100 mg/kg/day): no effect
aqueous solubility (Aqueous solubility): limited aqueous solubility at high concentration
